Reference: patent US7056697B2, “FabK variant” (priority 2000, dated 2006)

System: FabK
Test: FabK activity assay (crotonoyl-ACP reduction, NADH oxidation monitored at 340 nm)
Format: biochemical, Streptococcus pneumoniae
Conditions: NH4+ at 100 mM; greatest activation
Protocol: FabK catalyses the reduction of enoyl-ACPs with the concommitant oxidation of NADH. Crotonoyl-ACP can be prepared as described below. The reduction of crotonoyl-ACP to butyryl-ACP can be monitored by following the change in absorbance at 340 nm as NADH is oxidised.
Assays were carried out in Costar 3696 half-area plates in a final assay volume of 150 ul on a Spectramax platereader. Substrates, NADH and crotonoyl ACP, were incubated with FabK enzyme in 100 mM N-[2-acetamido]-2 iminodiacetic acid (ADA), pH 6.5, 100 mM NH4Cl, 4% glycerol at 30° C. and the reaction monitored at 340 nm. This assaying can also be performed using crotonyl CoA, NADPH or an NADH analogue as a substrate.

N [NH4^+]
activation of the FabK reaction over the reaction with no monovalent cations: about 300 fold
